These results are taken from a melting point compilation (Tetko et al.; mined from patent text by program, amines drawn as free bases though some values may be those of a salt).

Each structure is given as a SMILES string.

Take `Cc1c(F)c(N2CCNC(C)C2)c(F)c2c1c(=O)c(C(=O)O)cn2C1CC1` (stereo unspecified): the melting point fell in the range of 187 to 188 °C.

Consider `CON(C)C(=O)c1cc(S(N)(=O)=O)sc1Cl`, for which the melting point is 223 to 225 °C. `Nc1nc(OS(=O)(=O)c2ccccc2)ncc1F` returned a melting point of 139 to 141 °C. Then `CC(C)Oc1ccc(-c2ccc3nc(C(=O)NC(Cc4ccc(OCc5ccccc5)cc4)C(=O)O)cn3c2)cc1` (stereo unspecified), with 263 °C.

Consider `CNCc1nc(-c2ncn3c2[C@@H]2CCN2C(=O)c2cc(F)ccc2-3)no1`, for which the melting point lay within 155 to 160 °C. The compound `COc1ccccc1Sc1c(Cl)ncnc1Cl` had a melting point of 103 °C. Turning to `O=C(NC(CS)Cc1ccccc1)N1CCN(c2ccc(Cl)cc2)CC1` (single isomer, unassigned; (+)), the melting point was found to be 148 °C. The same measure for `CCCN(CCC)C1CCC2=C(CC(OC)=CC2)C1` (stereo unspecified): 47 to 51 °C.

Compound `COc1ccc(-n2nc3c4c([nH]cc-3c2=O)CCCCCC4)cc1` registered a melting point of 275 to 277 °C.

Compound `COc1ccc(OC)c(CC2=C(C)C(=O)C3C=CC=CC3C2=O)c1` (stereo unspecified) gave a melting point of 140 to 142 °C. `Cc1ccc(S(=O)(=O)OCCC2CCN(C(=O)c3ccccc3)CC2)cc1` gave a melting point of 81 to 83 °C. As for `O=C(O)Cc1cc2c(c([N+](=O)[O-])c1)NC(C(F)(F)F)CC2` (stereo unspecified), the melting point was in the range of 177 to 178 °C.

The compound `COc1ccc(C2CNC(=O)C2)cc1OCCC(C)N1CCN(c2ccccc2)CC1` (stereo unspecified) displayed a melting point of 88 to 90 °C. `Cc1sc(-c2cccc(Br)c2)nc1O` had a melting point of 148 to 149 °C.

Regarding `CC(C)(N)CCn1c(=O)oc2ccccc21`, the melting point lay within 145 to 147 °C. For `Nc1nc(N)c(N=O)c(OCC2CC=CCC2)n1` (stereo unspecified), the melting point was 237 °C. The same measure for `O=C(O)Cc1noc(CC(=O)O)n1`: 109 to 111 °C; for `NS(=O)(=O)c1ccccc1C(=O)OCCO`: 84 to 86.5 °C; for `COc1cc2cc(C(N)=O)c(N)nc2cc1OC`: 275 °C. Then `CC(O)c1ccnc(C(=O)c2[nH]c3cc(Cl)ccc3c2CC(=O)O)c1` (stereo unspecified), with 193 to 194 °C; and `Nc1nc(NCCc2ccccc2OCc2ccccc2)nc2nc(-c3ccco3)nn12`, with 151 to 153 °C. For `Cc1c(C2=NC(C)(C)CO2)cccc1[N+](=O)[O-]`, the melting point was in the range of 60 to 61 °C. The same measure for `CNC(=O)c1cccc(-c2ccc(OC(C)C(O)CCc3cccnc3)cc2)c1` (stereo unspecified): 54 to 55 °C.

Consider `Cc1csc(C)c1CO`, for which the melting point was in the range of 80 to 81 °C. The same measure for `Cc1cc2ccccc2cc1C1CC(=O)C=C(O)C1` (stereo unspecified): 210 °C; for `Cc1ccc(SC(C#N)c2ccc(C(=O)c3cccs3)cc2)cc1` (stereo unspecified): 124 to 126 °C; for `CCN(C)c1nc(-c2ccc(OC)c(OC)c2)nc2sc(C#N)c(C)c12`: 133 to 135 °C. For `Cc1nn(-c2ccccc2)cc1C(=O)Nc1ccc(OCC(C)(C)C)c(C#N)c1`, the melting point fell in the range of 155 to 156 °C. With `COc1ccc2[nH]c(C(=O)N[C@H]3CCN(C(=O)c4cc(Cl)cc(Cl)c4)[C@H](Cc4ccccc4)C3)cc2c1` (relative stereo), the melting point was determined as 251 °C. Compound `NS(=O)(=O)c1cc2c(Cl)c(O)ccc2s1` yielded a melting point of 198 to 201 °C. Turning to `CCCCCCCCCCC(O)Cn1ccnc1-c1ccccn1` (stereo unspecified), the melting point is 62 to 65 °C.

For `Cc1ccc(CSc2nc3cc4c(cc3[nH]2)C(C)(C)CCC4(C)C)nc1`, the melting point was 187 to 188 °C. In the case of `CCNC(=O)c1ccc2cc(-c3csc(N(C)S(=O)(=O)c4ccccc4)n3)c(=O)[nH]c2c1`, the melting point is more than 300 °C. In the case of `Cn1cc(C(F)(F)F)c(C(=O)O)n1`, the melting point is 174 to 175 °C. The same measure for `COc1cc2ncnc(N3CCN(C(=O)Nc4ccc(-n5cccc5)nc4)CC3)c2cc1OC`: 252 to 254 °C; for `C=CCOc1cc([N+](=O)[O-])ccc1Cl`: 58 to 59.5 °C.

As to `CC(=O)N1Cc2nc(Cl)nc(Nc3ccc(F)c(Cl)c3)c2N=C1Cl`, the melting point is 178 °C. Regarding `CC(C)C[C@H](NC(=O)[C@H](Cc1ccccc1)NC(=O)C1CCCCC1S)C(=O)O` (stereo partly specified), the melting point was in the range of 180 to 183 °C. In the case of `CC(C)n1c2c(c3cccc(F)c31)C(=O)NCC2`, the melting point is 183 to 184 °C. Consider `CCCOc1ccc(S(=O)(=O)C(C)C)cc1C(N)=O`, for which the melting point lay in the range of 177 to 178 °C. As for `COC(=O)CC=Cc1c(C(C)C)cc(C(C)C)cc1C(C)C`, the melting point is 61 to 63 °C. Consider `Cn1c(=O)c2c(ncn2CCCN2CCN(c3nccnc3Cl)CC2)n(C)c1=O`, for which the melting point fell in the range of 205 to 207 °C. With `CCCOc1ccccc1-c1nc(C=NNC(=O)OCC)c[nH]1`, the melting point lay in the range of 129 to 132 °C. The same measure for `COCN1C(C)=C(C(=O)OC)[C@H](c2cccc([N+](=O)[O-])c2)C(C(=O)OCOC(=O)C(C)(C)C)=C1C`: 113 to 114 °C; for `O=C(CCS)NC1CCCCC1`: 73.5 to 75.5 °C. The compound `NC(=O)C(Nc1ccc(I)cc1)c1ccccc1` (stereo unspecified) yielded a melting point of 134 to 137 °C. `C#CCOC(=O)C1=C(C)NC(C)=C(C(=O)OCC)C1c1ccccc1C` (stereo unspecified): the melting point was 129 °C. In turn, `CCOC(=O)N1c2ccc(C(F)(F)F)cc2[C@@H](NC(=O)OC)C[C@H]1CC` showed a melting point of 157 to 158 °C.

The compound `CCOCc1nc2c(N)nc(C)c(C)c2n1CCNC(=O)Nc1ccccc1` came in with a melting point of 110 °C. As to `COCCOc1cc(NC(=O)OC(C)(C)C)c(N)cc1C#Cc1ccccc1`, the melting point is 105 to 107 °C. For the compound `CS(=O)(=O)c1ccc(-c2cnn(-c3cccc(Cl)c3)c(=O)c2C2CCCC2)cc1`, the melting point was 155 to 157 °C. `COc1cccc2c(CCO)c(C)oc12` registered a melting point of 58 to 59 °C. For `O=C1CCCCC(c2ccccc2)N1` (stereo unspecified), the melting point lay in the range of 135 to 137 °C. As for `O=C(NCc1ccccc1-c1ccccc1C(=O)NCCc1ccccn1)Nc1ccccc1`, the melting point came out at 99 °C.

Regarding `C[C@H](NC(=O)CCCCc1ccccc1)C(=O)N[C@H](CCC(=O)O)C(=O)O`, the melting point was 135 to 140 °C. In the case of `COC(=O)c1ccc2c([N+](=O)[O-])cc3c(c2c1)C(CCl)CN3` (stereo unspecified), the melting point was in the range of 161 to 163 °C. The same measure for `Cc1cc(SC(C)C)c(NC(=O)CCCCSc2nc3ccccc3o2)c(SC(C)C)n1`: 129 to 130 °C; for `O=[N+]([O-])c1ccc(F)c(CNCCO)c1`: 93 to 94 °C; for `COC(=Cc1ncn(C(c2ccccc2)(c2ccccc2)c2ccccc2)c1C)C(=O)c1cccc2ccccc12`: 220 to 222 °C. Turning to `O=C1NC(=O)C(CC#Cc2ccc(Cl)cc2)(Sc2ccc(F)cc2)S1` (stereo unspecified), the melting point was 116 to 117 °C. With `Cc1c(-c2ccc(C#N)cc2)c(C#N)c(C2CC2)n1Cc1cnc(Cl)c(COC(=O)CCC(=O)O)c1`, the melting point is 188 to 189 °C. Take `CC(=O)OCC1OC(n2cnc3c(N)ncnc32)CC1O` (stereo unspecified): the melting point was 150 to 152 °C.

In turn, `O=C(O)CCc1c(-c2ccccc2)noc1-c1ccccc1` yielded a melting point of 152 to 153 °C. Turning to `COc1ccc(C(=O)N2CCC(N3CC4(CCN(Cc5ccccc5)CC4)c4ccccc43)c3ccccc32)cc1OC` (stereo unspecified), the melting point lay in the range of 155 to 157 °C.

Take `CCCC(=O)c1cnc2c(C3CO3)cccc2c1Nc1ccccc1C` (stereo unspecified): the melting point is 114 to 116 °C. `CCOC(=O)N1CCc2cc(S(=O)(=O)n3cc(-c4ccccc4)[nH]c3=O)ccc21` had a melting point of 214 to 216 °C. `CN1CCC(Cc2nc3ccccc3n2Cc2ccc(CO)o2)CC1` registered a melting point of 158 °C. Then `CC(C)(C)OC(=O)Nc1cccc(C2(O)CCOCC2)c1`, with 140 to 142 °C.

Turning to `CCOc1ccc2[nH]cc(C(=O)NCc3ccccn3)c(=O)c2c1`, the melting point was 222 to 224 °C.

`COc1ccc(-c2noc3ccsc23)cc1` had a melting point of 93 to 94 °C.

On to `CS(=O)(=O)Nc1ccc(N2CCN(c3cnccc3N)CC2)cc1`, for which the melting point is 246 to 248 °C. Then `Cc1cccc2c1nc(-c1ccccc1[N+](=O)[O-])n2CC(O)C(C)(C)C` (stereo unspecified), with 204 °C. In the case of `c1ccc(-c2ncc(-c3nnc(-c4ccccc4)[nH]3)cn2)cc1`, the melting point fell in the range of 280 to 282 °C. `N#CCN1C(=O)N(c2ccc(C#N)c(C(F)(F)F)c2)C(=O)C12CCOCC2` showed a melting point of 210 to 211 °C. `Cc1nc2nc(SCc3ccccc3)nn2c(C)c1C`: the melting point lay in the range of 134 to 135 °C. The compound `C[C@@H](N(CCNC(=O)OC(C)(C)C)C(=O)c1ccc(C(F)(F)F)cc1)[C@](O)(Cn1cncn1)c1ccc(F)cc1F` (relative stereo) came in with a melting point of 135 to 143 °C.

Consider `O=C(CCCl)Nc1ccccc1`, for which the melting point lay within 114 to 116 °C. Regarding `COc1ccc(C2Cc3c(cccc3C(F)(F)F)NC(=O)C2CO)cc1` (stereo unspecified), the melting point lay within 189 to 190 °C. As to `Nc1cc(SC2=CCCCC2)ccc1[N+](=O)[O-]`, the melting point was in the range of 100 to 102 °C. Then `COC1=CC(OC)(OC)CC=C1C(=O)OCC(=O)c1ccccc1`, with 97 to 98 °C; and `CCCCCCC(C)(C)c1ccc(Br)c(OCc2ccccc2)c1`, with 58 to 59 °C. Turning to `CCCS(=O)(=O)N(COC)C(=O)c1nc(OC)cc(OC)n1`, the melting point lay within 59 to 62 °C.

Consider `CCCCC(CC)Nc1cc(C)nc(Cl)c1N` (stereo unspecified), for which the melting point was 139 to 140 °C. Consider `CC(C)/[N+]([O-])=C/c1ccccc1O`, for which the melting point fell in the range of 36 to 39 °C.

The compound `CCOC(=S)c1ccc2scc(C)c2c1` showed a melting point of 67 to 69 °C.

Take `COc1ccc(N2c3ccccc3Sc3ccccc32)cc1`: the melting point lay within 173 to 176 °C.

`O=C(NO)NCCCCC1CCSS1` (stereo unspecified) displayed a melting point of 100 to 101 °C.

Compound `CC(C)(C)OC(=O)N1CCC(CNc2c([N+](=O)[O-])cnc3cc(-c4ccccc4)ccc23)CC1` returned a melting point of 153 to 154 °C. Take `O=C(Nc1ccc(-n2ncn(-c3ccc(OCC(F)(F)C(F)F)cc3)c2=O)cc1)Oc1ccccc1`: the melting point lay in the range of 204 to 206 °C. `COc1ccc(N2CCN(c3cc4c(c(C)c3C)OC(C)(C)C4)CC2)cc1` returned a melting point of 180 to 182 °C. As for `CCOC(=O)CSc1nc(Cl)cc(Nc2ccccc2)n1`, the melting point lay within 109 to 114 °C.
